What was measured:
CD22 (Siglec-2) [1] = target: T1, CD22 (Siglec-2) (Mus musculus, UniProt P35329); test: competition ELISA, mouse CD22-Fc binding to immobilized biotinylated synthetic CD22 ligand
T1 construct: amino-terminal domains (domains 1–3) fused to Fc region of human IgG1 (CD22-Fc)
T1 sequence (P35329 22-347 limits assumed): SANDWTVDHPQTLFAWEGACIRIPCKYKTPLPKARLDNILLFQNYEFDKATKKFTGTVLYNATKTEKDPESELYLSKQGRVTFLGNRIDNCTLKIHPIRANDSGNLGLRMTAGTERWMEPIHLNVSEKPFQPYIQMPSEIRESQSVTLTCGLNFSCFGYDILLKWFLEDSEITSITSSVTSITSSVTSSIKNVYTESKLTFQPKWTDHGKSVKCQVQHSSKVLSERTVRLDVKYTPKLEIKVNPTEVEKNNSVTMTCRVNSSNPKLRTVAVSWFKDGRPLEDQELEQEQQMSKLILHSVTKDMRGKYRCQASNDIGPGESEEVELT

CD22 (Siglec-2) [2] = target: T2, CD22 (Siglec-2) (Homo sapiens, UniProt P20273); test: competition ELISA, human CD22-Fc binding to immobilized α1-acid glycoprotein
T2 construct: amino-terminal domains (domains 1–3) fused to Fc region of human IgG1 (CD22-Fc)
T2 sequence (P20273 20-326 limits assumed): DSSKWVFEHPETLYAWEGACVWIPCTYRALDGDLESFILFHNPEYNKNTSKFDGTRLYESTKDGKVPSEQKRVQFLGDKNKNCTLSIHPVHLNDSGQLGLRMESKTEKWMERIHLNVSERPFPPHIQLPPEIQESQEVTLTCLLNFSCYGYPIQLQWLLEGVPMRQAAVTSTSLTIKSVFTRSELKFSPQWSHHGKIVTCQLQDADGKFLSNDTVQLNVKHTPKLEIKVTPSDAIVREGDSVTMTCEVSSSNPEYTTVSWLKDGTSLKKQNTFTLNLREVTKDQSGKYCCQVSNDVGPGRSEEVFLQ

SMILES | IC50 (CD22 (Siglec-2) [1]) [µM] | IC50 (CD22 (Siglec-2) [2]) [µM]
O=C(Cc1ccc(-c2ccc(O)cc2)cc1)NC[C@@H](O)[C@@H](O)[C@@H]1O[C@@](OCc2ccccc2)(C(=O)O)C[C@H](O)[C@H]1NC(=O)CO [GSC718] | ~0.1 | ~0.1
O=C(Cc1ccc(-c2ccc(O)cc2)cc1)NC[C@@H](O)[C@@H](O)[C@@H]1OC(OCc2ccc(F)cc2)(C(=O)O)C[C@H](O)[C@H]1NC(=O)CO (stereo partly shown) [GSC839] | ~0.1 | ~0.1

Reference: paper PMC5917077, “CD22-Binding Synthetic Sialosides Regulate B Lymphocyte Proliferation Through CD22 Ligand-Dependent and Independent Pathways, and Enhance Antibody Production in Mice” (Frontiers in Immunology, 2018)
